Values after ≈ are worked out from the molar mass of the structure shown. Read-outs that look alike come from different tables or passages of the source.
Assays:
BxPC-3 = assay: MTS growth inhibition assay; type: cell-based, human; conditions: BxPC-3 pancreas, read-out: Growth inhibitory activity (50% effective concentration, IC50)
Protocol: (§1) A2780 and A2780/CP (ovarian); MCF-7 (breast); HT-29 (colon); BxPC-3 (pancreas); and A549 (lung). The human tumor cell lines (purchased from ATCC, Rockville, Md.) were cultured at 37° C. […] Nova Tech, Grand Island, N.Y.) containing 10% fetal bovine serum (FBS, Nova Tech). Aliquots of cells were seeded into each well of 96-well microtiter plates at a final concentration of 10^4 cells/well and incubated for 24 h prior to exposure to test compounds. […] The MTS assay is a colorimetric assay based upon the ability of viable cells to convert MTS, a novel tetrazolium compound and electron-coupling reagent, to a colored formazan product that is soluble in cell culture medium. The cell concentration is then determined by measuring the absorbance of the formazan product at 490 nm. Growth inhibition, expressed as IC50, is calculated relative to vehicle-treated control cells.

A2780CP = assay: MTS growth inhibition assay; type: cell-based, human; conditions: A2780CP (resistant) ovarian, read-out: Growth inhibitory activity (50% effective concentration, IC50)
Protocol: as §1

HT-29 = assay: MTS growth inhibition assay; type: cell-based, human; conditions: HT-29 colon, read-out: Growth inhibitory activity (50% effective concentration, IC50)
Protocol: as §1

MCF-7 = assay: MTS growth inhibition assay; type: cell-based, human; conditions: MCF-7 breast, read-out: Growth inhibitory activity (50% effective concentration, IC50)
Protocol: as §1

A549 = assay: MTS growth inhibition assay; type: cell-based, human; conditions: A549 lung, read-out: Growth inhibitory activity (50% effective concentration, IC50)
Protocol: as §1

A2780 = assay: MTS growth inhibition assay; type: cell-based, human; conditions: A2780 (sensitive) ovarian, read-out: Growth inhibitory activity (50% effective concentration, IC50)
Protocol: as §1

[1] = Solubility in water and in 40% (w/v) HPBCD solution by UV absorbance; type: physicochemical
Protocol: To determine solubilities, test compounds were first dissolved in ethanol to prepare standard solutions with concentrations in the range 2.5–10 mg/ml, then were diluted with to 10 μg/ml with water. UV scans were obtained of the 10 μg/ml standard solutions, and the wavelength of maximum absorbance and the absorbance at the maximum absorbance wavelength were determined. For each test compound 50 μl aliquots of water and of 40% HPBCD were added to individual Eppendorf tubes containing approximately 1 mg of compound each. The tubes were heated in a 30° C. waterbath, vortexed, then centrifuged at 15,000 rpm for 5 min. This step was repeated, then the tubes were cooled to room temperature for 1 hour, then were centrifuged again. The supernatant from each tube was diluted with water into the appropriate absorbance range, and the UV absorbance was measured at the compound's absorbance maximum wavelength. The concentrations of these saturated solutions were then calculated by ratio to the 10 μg/ml ethanolic standard solutions.

[2] = test system: six human cancer cells lines; assay: MTS growth inhibition assay, summary over all lines; type: cell-based; conditions: all six tumor cell lines; tested up to 20 μM
Protocol: A2780 and A2780/CP (ovarian); MCF-7 (breast); HT-29 (colon); BxPC-3 (pancreas); and A549 (lung). The human tumor cell lines (purchased from ATCC, Rockville, Md.) were cultured at 37° C. (5% CO2) in RPMI medium (RPMI; Nova Tech, Grand Island, N.Y.) containing 10% fetal bovine serum (FBS, Nova Tech). Aliquots of cells were seeded into each well of 96-well microtiter plates at a final concentration of 10^4 cells/well and incubated for 24 h prior to exposure to test compounds. […] The MTS assay is a colorimetric assay based upon the ability of viable cells to convert MTS, a novel tetrazolium compound and electron-coupling reagent, to a colored formazan product that is soluble in cell culture medium. The cell concentration is then determined by measuring the absorbance of the formazan product at 490 nm. Growth inhibition, expressed as IC50, is calculated relative to vehicle-treated control cells.

[3] = Exp 1, 4 h treatment + 24 h drug-free
[4] = Exp 2, 4 h treatment + 24 h drug-free
[5] = Exp 3, 4 h treatment + 24 h drug-free
[6] = 40% (w/v) HPBCD, room temperature, saturated solution
[7] = water, room temperature, saturated solution

Compound	IC50 (BxPC-3; Exp 1)	IC50 (BxPC-3; Exp 2)	IC50 (BxPC-3; Exp 3)	IC50 (BxPC-3; Mean ± SE of 3 experiments)	IC50 (A2780CP; Exp 2)	IC50 (A2780CP; Exp 3)	IC50 (A2780CP; Mean ± SE of 3 experiments)	IC50 (HT-29; Exp 2)	IC50 (HT-29; Exp 3)	IC50 (HT-29; Mean ± SE of 3 experiments)	IC50 (MCF-7; Exp 2)	IC50 (MCF-7; Exp 3)	IC50 (MCF-7; Mean ± SE of 3 experiments)	IC50 (A549; Exp 2)	IC50 (A549; Exp 3)	IC50 (A549; Mean ± SE of 3 experiments)	IC50 (A2780; [4])	IC50 (A2780; [5])	IC50 (A2780; Mean ± SE of 3 experiments)	growth inhibitory activity, verbal summary [2]	other results
CC(=O)OC1CC(C)(C)OC2=C1C(=O)C(=O)c1ccccc12 (stereo not drawn) [CO-504, 4-acetoxy β-lapachone]	10.5 µM	13.5 µM	2.32 µM	8.74 ± 3.33 µM	4 µM	2.56 µM	2.41 ± 0.96 µM	6.67 µM	3.98 µM	8.25 ± 3.03 µM	4.78 µM	4.28 µM	3.88 ± 0.67 µM	6.87 µM	3.75 µM	9.97 ± 4.74 µM	1.6 µM	1.19 µM	1.54 ± 0.19 µM	very similar to CO-501 in inhibitory activity	IC50 (A2780CP; Exp 1): 0.678 µM; IC50 (HT-29; Exp 1): 14.1 µM; IC50 (MCF-7; Exp 1): 2.59 µM; IC50 (A549; Exp 1): 19.3 µM; IC50 (A2780; [3]): 1.83 µM; Solubility in HPBCD Solution [1, 6]: 2100 µg/mL (≈ 6.99 mM); Solubility Enhancement ([1]; 40% HPBCD versus water): 7.4 −Fold; Solubility in Water [1, 7]: 284 µg/mL (≈ 0.946 mM)
CC1(C)CC(O)C2=C(O1)c1ccccc1C(=O)C2=O (stereo not drawn) [CO-503, 4-hydroxy β-lapachone]	> 20 µM	> 20 µM	> 20 µM	> 20 µM	9.38 µM	14.8 µM	10.5 ± 2.2 µM	11 µM	12.1 µM	12.1 ± 0.63 µM	19.4 µM	19.3 µM	19.2 ± 0.17 µM	7.63 µM	9.77 µM	10.6 ± 1.98 µM	5.29 µM	4.86 µM	4.16 ± 0.92 µM	significantly less active across all cell lines	IC50 (A2780CP; Exp 1): 7.42 µM; IC50 (HT-29; Exp 1): 13.2 µM; IC50 (MCF-7; Exp 1): 18.8 µM; IC50 (A549; Exp 1): 14.3 µM; IC50 (A2780; [3]): 2.35 µM; Solubility in HPBCD Solution [1, 6]: 3100 µg/mL (≈ 12 mM); Solubility Enhancement ([1]; 40% HPBCD versus water): 8.0 −Fold; Solubility in Water [1, 7]: 381 µg/mL (≈ 1.48 mM)
CCCCCC(=O)OC1=CC(=O)C(=O)c2ccccc21 [CO-507, 4-hexanoyloxy-1,2-naphthoquinone]		> 20 µM	> 20 µM	> 20 µM	> 20 µM	> 20 µM	> 20 µM	> 20 µM	> 20 µM	> 20 µM	> 20 µM	> 20 µM	> 20 µM	> 20 µM	> 20 µM	> 20 µM	> 20 µM	> 20 µM	> 20 µM	inactive	IC50 (BxPC-3; Homo sapiens, Exp 1): > 20 µM; IC50 (A2780CP; Homo sapiens, A2780C/P, Exp 1): > 20 µM; IC50 (HT-29; Homo sapiens, Exp 1): > 20 µM; IC50 (MCF-7; Homo sapiens, MCF7, Exp 1): > 20 µM; IC50 (A549; Homo sapiens, Exp 1): > 20 µM; IC50 (A2780; Homo sapiens, Exp 1, 4 h treatment + 24 h drug-free): > 20 µM
CC1(C)CC(=O)C2=C(O1)c1ccccc1C(=O)C2=O [Compound 4-keto-βL, 4-keto-βL]																					Solubility Enhancement [1]: 8.7 −Fold; Solubility in HPBCD Solution [1]: 4400 µg/mL (≈ 17.2 mM); Solubility in Water [1]: 503 µg/mL (≈ 1.96 mM)
CC1OC2=C(C(=O)C(=O)c3ccccc32)C1(C)C (stereo not shown) [CO-506]	5.69 µM	8.4 µM	9.22 µM	7.77 ± 1.07 µM	3.85 µM	1.53 µM	2.7 ± 0.67 µM	13.4 µM	11.2 µM	14 ± 1.78 µM	3.99 µM	3.53 µM	3.39 ± 0.4 µM	12.7 µM	15.3 µM	11.8 ± 2.28 µM	4.79 µM	3.23 µM	3.5 ± 0.68 µM	activity profile similar to CO-501	IC50 (A2780CP; Exp 1): 2.73 µM; IC50 (HT-29; Exp 1): 17.3 µM; IC50 (MCF-7; Exp 1): 2.64 µM; IC50 (A549; Exp 1): 7.5 µM; IC50 (A2780; [3]): 2.47 µM

Reference: patent US7074824B2, “Pharmaceutical compositions containing beta-lapachone, or derivatives or analogs thereof, and methods of using same” (Arqule, Inc., priority 2001, dated 2006)
